Data set [1] relates to HBV DNA. The experiment in a line: Anti-HBV activity in HepDE19 cells (HBV DNA dot-blot). The format is cell-based, Hepatitis B virus (HBV). As to conditions: Hepatitis B virus, 120 h; HepDE19 cells, five days after compound treatment, concentration that inhibited HBV DNA by 50%; read-out: HepDe19 EC50. The source says:
Cells and culture conditions: HepDE19 (Haitao Guo et al, Journal of Virology, 81, November 2007, 12472-12484; Richeng Mao et al, Journal of Virology, 85, January 2011, 1048-1057) cells were derived from HepG2 (ATCC, American Type Culture Collection) cells through transfection with pTet-off plasmid (Clontech) that expresses the Tet-responsive transcriptional activator and pTREHBVDE plasmid in which HBV pgRNA expression is controlled by a CMV early promoter with a tetracycline-responsive element. The transfected cells were selected with G418 (also known as Genticin, purchased from Invitrogen). […] These cells were maintained in Dulbecco's modified Eagle's medium (DMEM)-F12 medium (Invitrogen) supplemented with 10% fetal bovine serum, 100 U/ml penicillin, and 100 μg/ml streptomycin, 0.5 mg/ml of G418 and 1 μg/ml tetracycline.
Anti-HBV activity and cytotoxicity: HepDE19 cells were seeded into 96-well plates (3×10^4 cells/well) with tetracycline-free medium and incubated overnight at 37° C. The test or control compounds were serially half-log diluted with medium and added into the plates (the final concentration of DMSO kept at 0.5% in each well). Five days after compound treatment, cells were washed with PBS and lysed with 50 mM Tris-1 mM EDTA-0.2% CA-630 (pH 8.0) at 37° C. for 20 min. After centrifugation to remove nuclei and other debris, the supernatant was transferred into a new plate and incubated with 2M NaOH/20×SSC (3M NaCl, 0.3M Sodium citrate, pH7.0) at rt for 30 min. Then the samples were transferred to nylon membrane and neutralized with 1M Tris (pH7.4)/2M NaCl. The presence of HBV DNA was detected by dot-blot with DIG-labeled HBV specific DNA probe and quantified by dot density. The compound concentrations that inhibited HBV DNA by 50% (EC50) were determined (See Table 1).

The nature of data set [2]: in vitro. As to conditions: human. Here is the method:
The transfected cells were selected with G418 (also known as Genticin, purchased from Invitrogen). […] These cells were maintained in Dulbecco's modified Eagle's medium (DMEM)-F12 medium (Invitrogen) supplemented with 10% fetal bovine serum, 100 U/ml penicillin, and 100 μg/ml streptomycin, 0.5 mg/ml of G418 and 1 μg/ml tetracycline.
To determine if the anti-HBV effect of compound is due to cytotoxicity, HepDE 19 cells (5×10^3 cells/well) were seeded into 96-well plates and compounds were treated as described above. […] Four hours after incubation at 37° C., the absorbance at wavelengths of 450 nm and 630 nm (OD450 and OD630) was recorded by a plate reader.

17 compounds from patent US9856247B2, “4-methyl-dihydropyrimidines for the treatment and prophylaxis of Hepatitis B virus infection” (Hoffmann-La Roche Inc., priority 2012, dated 2018) can be followed below.

SMILES strings stand for the structures.

With `COC(=O)C1=C(CN2CC(F)(F)C[C@H]2C(=O)O)NC(c2sccc2F)=N[C@]1(C)c1ccc(F)cc1` [Example 42, (R)-6-((S)-2-carboxy-4,4-difluoro-pyrrolidin-1-ylmethyl)-4-(4-fluoro-phenyl)-2-(3-fluoro-thiophen-2-yl)-4-methyl-1,4-dihydro-pyrimidine-5-carboxylic acid methyl ester], in data set [1], the half-maximal effective concentration (EC50) (as a rule, the concentration that produces a half-maximal response) stood at 6.81 µM. The CC50 at 5 days in data set [2] was ≥ 100 µM.

Turning to `COC(=O)C1=C(CN2CC(F)(F)C[C@H]2C(=O)O)NC(c2cc(F)cs2)=N[C@@]1(C)c1ccc(F)cc1` [Example 43, (S)-6-((S)-2-carboxy-4,4-difluoro-pyrrolidin-1-ylmethyl)-4-(4-fluoro-phenyl)-2-(4-fluoro-thiophen-2-yl)-4-methyl-1,4-dihydro-pyrimidine-5-carboxylic acid methyl ester], the EC50 in data set [1] came out at 0.131 µM. Besides, the CC50 at 5 days in data set [2] is ≥ 100 µM.

As to `COC(=O)C1=C(CN(CC(=O)O)CC(F)(F)F)NC(c2nccs2)=N[C@@]1(C)c1ccc(F)cc1` [Example 44, (S)-6-{[carboxymethyl-(2,2,2-trifluoro-ethyl)-amino]-methyl}-4-(4-fluoro-phenyl)-4-methyl-2-thiazol-2-yl-1,4-dihydro-pyrimidine-5-carboxylic acid methyl ester], in data set [1], the EC50 came out at 21.5 µM. In addition, the CC50 at 5 days in data set [2] was ≥ 100 µM.

On to `COC(=O)C1=C(CN2CC(F)(F)C[C@H]2C(=O)OCCN(C)C)NC(c2nccs2)=N[C@@]1(C)c1ccc(F)cc1` [Example 46, (S)-6-[(S)-2-(2-dimethylamino-ethoxycarbonyl)-4,4-difluoro-pyrrolidin-1-ylmethyl]-4-(4-fluoro-phenyl)-4-methyl-2-thiazol-2-yl-1,4-dihydro-pyrimidine-5-carboxylic acid methyl ester], for which the EC50 in data set [1] is 2.13 µM. For the same compound, the CC50 at 5 days in data set [2] is ≥ 100 µM.

Take `COC(=O)C1=C(CN2CC(F)(F)CC2C(N)=O)NC(c2nccs2)=N[C@@]1(C)c1ccc(F)cc1` (stereo partly drawn) [Example 47, (S)-6-(2-carbamoyl-4,4-difluoro-pyrrolidin-1-ylmethyl)-4-(4-fluoro-phenyl)-4-methyl-2-thiazol-2-yl-1,4-dihydro-pyrimidine-5-carboxylic acid methyl ester]: the EC50 in data set [1] was found to be 0.048 µM. The CC50 at 5 days in data set [2] is ≥ 100 µM.

As for `COC(=O)C1=C(CN2CC(F)(F)C[C@H]2C(N)=O)NC(c2nccs2)=N[C@@]1(C)c1ccc(F)cc1` [Example 48, (S)-6-((S)-2-carbamoyl-4,4-difluoro-pyrrolidin-1-ylmethyl)-4-(4-fluoro-phenyl)-4-methyl-2-thiazol-2-yl-1,4-dihydro-pyrimidine-5-carboxylic acid methyl ester], the EC50 in data set [1] came out at 0.08 µM. Moreover, the CC50 at 5 days in data set [2] is ≥ 100 µM.

For the compound `COC(=O)C1=C(CN2CC(F)(F)C[C@H]2C(=O)N(C)C)NC(c2nccs2)=N[C@@]1(C)c1ccc(F)cc1` [Example 49, (S)-6-((S)-2-dimethylcarbamoyl-4,4-difluoro-pyrrolidin-1-ylmethyl)-4-(4-fluoro-phenyl)-4-methyl-2-thiazol-2-yl-1,4-dihydro-pyrimidine-5-carboxylic acid methyl ester], the EC50 in data set [1] was found to be 0.29 µM. The CC50 at 5 days in data set [2] was ≥ 100 µM.

On to `CNC(=O)[C@@H]1CC(F)(F)CN1CC1=C(C(=O)OC)C(C)(c2ccc(F)cc2)N=C(c2nccs2)N1` (stereo partly drawn) [Example 50, 6-((S)-4,4-difluoro-2-methylcarbamoyl-pyrrolidin-1-ylmethyl)-4-(4-fluoro-phenyl)-4-methyl-2-thiazol-2-yl-1,4-dihydro-pyrimidine-5-carboxylic acid methyl ester], for which the EC50 in data set [1] was found to be 0.606 µM. Moreover, in data set [2], the CC50 at 5 days is ≥ 100 µM.

Consider `COC(=O)C1=C(CN2CC(F)(F)C[C@H]2C(=O)NS(C)(=O)=O)NC(c2nccs2)=N[C@@]1(C)c1ccc(F)cc1` [Example 51, (S)-6-((S)-4,4-difluoro-2-methanesulfonylaminocarbonyl-pyrrolidin-1-ylmethyl)-4-(4-fluoro-phenyl)-4-methyl-2-thiazol-2-yl-1,4-dihydro-pyrimidine-5-carboxylic acid methyl ester], for which, in data set [1], the EC50 was 18.2 µM. In data set [2], the CC50 at 5 days was 90 µM.

As for `COC(=O)C1=C(CN2CC(F)(F)C[C@H]2C(=O)Nc2nccs2)NC(c2nccs2)=N[C@@]1(C)c1ccc(F)cc1` [Example 52, (S)-6-[(S)-4,4-difluoro-2-(thiazol-2-ylcarbamoyl)-pyrrolidin-1-ylmethyl]-4-(4-fluoro-phenyl)-4-methyl-2-thiazol-2-yl-1,4-dihydro-pyrimidine-5-carboxylic acid methyl ester], the EC50 in data set [1] is 5.43 µM. The compound further gave a CC50 at 5 days in data set [2] of 4.07 µM.

On to `COC(=O)C1=C(CN2CCOC[C@H]2CO)NC(c2nccs2)=NC1(C)c1ccc(F)cc1` (stereo partly drawn) [Example 53, 4-(4-fluoro-phenyl)-6-((R)-3-hydroxymethyl-morpholin-4-ylmethyl)-4-methyl-2-thiazol-2-yl-1,4-dihydro-pyrimidine-5-carboxylic acid methyl ester], for which, in data set [1], the EC50 was 1.75 µM. The CC50 at 5 days in data set [2] is ≥ 100 µM.

With `COC(=O)C1=C(CN2CC(F)(F)C[C@H]2C(C)(C)O)NC(c2nccs2)=N[C@@]1(C)c1ccc(F)cc1` [Example 54, (S)-6-[(S)-4,4-difluoro-2-(1-hydroxy-1-methyl-ethyl)-pyrrolidin-1-ylmethyl]-4-(4-fluoro-phenyl)-4-methyl-2-thiazol-2-yl-1,4-dihydro-pyrimidine-5-carboxylic acid methyl ester], the EC50 in data set [1] is 0.7 µM. In data set [2], the CC50 at 5 days was found to be 50.4 µM.

With `COC(=O)C1=C(CN2CC(F)(F)C[C@H]2CO)NC(c2nccs2)=N[C@@]1(C)c1ccc(F)cc1` [Example 55, (S)-6-((S)-4,4-difluoro-2-hydroxymethyl-pyrrolidin-1-ylmethyl)-4-(4-fluoro-phenyl)-4-methyl-2-thiazol-2-yl-1,4-dihydro-pyrimidine-5-carboxylic acid methyl ester], the EC50 in data set [1] is 0.067 µM. Moreover, in data set [2], the CC50 at 5 days is ≥ 100 µM.

As for `COC(=O)C1=C(CN2CC(F)(F)CC2CCCO)NC(c2nccs2)=N[C@@]1(C)c1ccc(F)cc1` (stereo partly drawn) [Example 56, (S)-6-[4,4-difluoro-2-(3-hydroxy-propyl)-pyrrolidin-1-ylmethyl]-4-(4-fluoro-phenyl)-4-methyl-2-thiazol-2-yl-1,4-dihydro-pyrimidine-5-carboxylic acid methyl ester], the EC50 in data set [1] came out at 0.66 µM. For the same compound, the CC50 at 5 days in data set [2] was 90 µM.

For `COC(=O)C1=C(CN2CC(F)(F)C[C@H]2c2nnc(C)o2)NC(c2nccs2)=N[C@@]1(C)c1ccc(F)cc1` [Example 57, (S)-6-[(S)-4,4-difluoro-2-(5-methyl-[1,3,4]oxadiazol-2-yl)-pyrrolidin-1-ylmethyl]-4-(4-fluoro-phenyl)-4-methyl-2-thiazol-2-yl-1,4-dihydro-pyrimidine-5-carboxylic acid methyl ester], the EC50 in data set [1] came out at 1.56 µM. In addition, in data set [2], the CC50 at 5 days is ≥ 100 µM.

On to `COC(=O)C1=C(CN2CC(F)(F)C[C@H]2c2nnn[nH]2)NC(c2nccs2)=N[C@@]1(C)c1ccc(F)cc1` [Example 58, (S)-6-[(S)-4,4-difluoro-2-(1H-tetrazol-5-yl)-pyrrolidin-1-ylmethyl]-4-(4-fluoro-phenyl)-4-methyl-2-thiazol-2-yl-1,4-dihydro-pyrimidine-5-carboxylic acid methyl ester], for which the EC50 in data set [1] was found to be 1.02 µM. In addition, the CC50 at 5 days in data set [2] is ≥ 100 µM.

As to `COC(=O)C1=C(CN2CC(F)(F)C[C@H]2c2nc(C)no2)NC(c2nccs2)=N[C@@]1(C)c1ccc(F)cc1` [Example 59, (S)-6-[(S)-4,4-difluoro-2-(3-methyl-[1,2,4]oxadiazol-5-yl)-pyrrolidin-1-ylmethyl]-4-(4-fluoro-phenyl)-4-methyl-2-thiazol-2-yl-1,4-dihydro-pyrimidine-5-carboxylic acid methyl ester], the concentration giving a half-maximal response (EC50) in data set [1] was 1.24 µM. In addition, in data set [2], the CC50 at 5 days was found to be 65.3 µM.
